Test results: the NIST ThermoML archive (doi:10.1016/j.jct.2017.03.006)

Experiment: xn = mol fraction of the nth substance listed
Conditions: 333.15 K, Liquid, Vibrating tube method

Cc1ccc(C)c(C)c1 [1,2,4-trimethylbenzene] + CCC(C)O
mass density [kg/m3]
Conditions	x2 = 0	x2 = 0.1	x2 = 0.1989	x2 = 0.3011	x2 = 0.4002	x2 = 0.5001	x2 = 0.5997	x2 = 0.6999	x2 = 0.7999	x2 = 0.9
40000 kPa	–	–	–	–	–	–	–	–	819.7	812.1
50000 kPa	877.4	871.2	865.3	859.2	853.2	847.6	840.5	833.4	826.3	818.7
60000 kPa	883	876.9	871.1	865.1	859.1	853.7	846.6	839.5	832.5	824.9
70000 kPa	888.2	882.5	876.6	870.6	864.8	859.3	852.3	845.3	838.4	830.7
80000 kPa	893.2	887.6	881.9	875.9	870.1	864.7	857.8	850.8	843.7	836.2
90000 kPa	898	892.5	886.9	881	875.2	869.8	862.9	856	849	841.4
100000 kPa	902.5	897.2	891.7	885.8	880	874.7	867.9	860.9	853.9	846.4
110000 kPa	906.9	901.8	896.2	890.5	884.7	879.4	872.6	865.7	858.7	851.2
120000 kPa	911.1	906.1	900.7	894.8	889.1	883.9	877.1	870.2	863.2	855.7
130000 kPa	915.1	910.3	904.9	899.1	893.4	888.2	881.5	874.5	867.5	860.1
140000 kPa	919	914.3	909.1	903	897.5	892.2	885.9	878.5	871.5	864
